The record followed here is article PMC6152277, “Synthesis and Evaluation of New Quinoxaline Derivatives of Dehydroabietic Acid as Potential Antitumor Agents” (Molecules : A Journal of Synthetic Chemistry and Natural …, 2017).

Assay [1] concerns human breast cancer cell line (MCF-7). The assay is described as follows: MTT cytotoxic assay, MCF-7. Type of assay: cell-based. The settings on record: MCF7, 48 h exposure. On the procedure: (§1) All the compounds (1–3, 4a–o) were evaluated for their in vitro cytotoxic activity against three cancer cell lines including human breast cancer cell line (MCF-7), human hepatocarcinoma cell line (SMMC-7721), human cervical carcinoma cell line (HeLa), and a noncancerous human hepatocyte cell line (LO2) using the MTT assay method. An anticancer drug etoposide (VP-16) was co-assayed as the positive control. The results of the test compounds shown as IC50 values (concentration required to inhibit tumor cell proliferation by 50%), are listed in Table 1.
(§2) The in vitro cytotoxic activities of the quinoxaline derivatives of DAA were evaluated against a human breast cancer cell line (MCF-7), human hepatocarcinoma cell line (SMMC-7721), human cervical carcinoma cell line (HeLa) and noncancerous human hepatocyte cells (LO2) via the MTT colorimetric method. Briefly, different tumor cells were grown in DMEM supplemented with 10% fetal bovine serum, penicillin (100 U/mL), and streptomycin (50 μg/mL). Cells were harvested at the log phase of growth and seeded in 96-well plates (100 μL/well at a density of 2 × 10^5 cells/mL). After 24 h of incubation at 37 °C and 5% CO2 to allow for cell attachment, cultures were exposed to various concentrations of the isolated compounds for 48 h. Finally, the MTT solution (2.5 mg/mL in PBS) was added (40 μL/well). Plates were further incubated for 4 h at 37 °C, and the formazan crystals formed were dissolved by adding 150 μL/well of DMSO. Absorption at 570 nm was measured with an ELISA plate reader. The results were expressed as IC50 values with standard deviations, which were defined as the concentrations at which a 50% survival of the cells was discerned. Etoposide (VP-16) was co-assayed as the positive control.
A general note: Tetrazolium dyes change colour on reduction, which living cells bring about.

Assay [2] deals with SMMC-7721 cells. The assay is described as follows: Hoechst 33258 staining assay. The class given is cell-based, human. The note with it: SMMC-7721, 0.2, 1.0 and 5.0 μM, 24 h. How it is done:
To investigate the morphological changes induced by compound 4b in SMMC-7721 cells, Hoechst staining was carried out. Hoechst 33258 is a cell membrane permeable dye, which stains the live cells’ nuclei uniformly as light-blue and apoptotic cells’ nuclei as round and bright-blue, on account of karyopyknosis and chromatin condensation. SMMC-7721 cells were treated with various concentrations (0, 0.2, 1.0 and 5.0 μM) of compound 4b for 24 h, and stained with Hoechst 33258.
Cells grown on a sterile cover slip in six-well plates were treated with different concentrations of the test compound for 24 h. The culture medium containing compounds was removed, and the cells were fixed in 4% paraformaldehyde for 10 min. After being washed twice with PBS, the cells were stained with 0.5 mL of Hoechst 33258 (Beyotime, Haimen, China) for 5 min, and then again washed twice with PBS. The stained nuclei were observed under a Nikon ECLIPSETE2000-S fluorescence microscope using 350 nm for excitation and 460 nm for emission.

For assay [3], the system named is human cervical carcinoma cell line (HeLa). The assay is described as follows: MTT cytotoxic assay, HeLa. Type of assay: cell-based. The note with it: 48 h exposure. On the procedure: as §1, §2
The subject of assay [4] is human hepatocarcinoma cell line (SMMC-7721). In words: MTT cytotoxic assay, SMMC-7721. The class given is cell-based. The note with it: 48 h exposure. On the procedure:
as §1, §2

The test system of assay [5] is SMMC-7721 cells. The assay is described as follows: Cell cycle analysis (PI staining, flow cytometry). Type of assay: cell-based, human. How it is done: Subsequently, to determine the possible role of the cell cycle arrest in cell growth inhibition induced by target compounds, SMMC-7721 cells were treated with different concentrations of compound 4b. The cell cycle distribution was investigated by flow cytometric analysis after staining of DNA with propidium iodide (PI).
SMMC-7721 cells were treated with indicated concentrations of compound 4b. After incubation for 48 h, the cells were washed twice with ice-cold PBS, fixed and permeabilized with ice-cold 70% ethanol at −20 °C overnight. The cells were treated with 100 μg/mL RNase A at 37 °C for 30 min after being washed with ice-cold PBS, and finally stained with 400 μL of 1 mg/mL PI in the dark at 4 °C for 30 min. The samples were then analyzed for their DNA content by flow cytometry (Becton-Dickinson FACSCalibur, New York, NY, USA).
(A flow cytometer gives signals particle by particle.)

Assay [6] has as its system noncancerous human hepatocyte cells (LO2). In words: MTT cytotoxic assay, LO2. Type of assay: cell-based. The note with it: 48 h exposure, noncancerous hepatocytes. On the procedure: as §1, §2
Assay [7] relates to SMMC-7721 cells. The assay is described as follows: Annexin V-FITC/PI dual staining assay. The class given is cell-based, human. The source says:
The apoptotic effect of compound 4b was further evaluated by a Annexin V-FITC/propidium iodide (AV/PI) dual staining assay to examine the occurrence of phosphatidylserine externalization, which facilitated the detection of live cells (lower left quadrant; AV−/PI−), early apoptotic cells (lower right quadrant; AV+/PI−), late apoptotic cells (upper right quadrant; AV+/PI+) and necrotic cells (upper left quadrant; AV−/PI+).
Apoptosis was discriminated with the Annexin V-FITC/PI dual staining assay. SMMC-7721 cells were seeded at 1 × 10^5 cells per well in 10% fetal calf serum (FBS)-DMEM into six-well plates, and treated with compound 4b for 24 h. The cells were washed twice with cold PBS and then resuspended in 1 × binding buffer (0.1 M Hepes/NaOH (pH 7.4), 1.4 M NaCl, 25 mM CaCl2) at a concentration of 1 × 10^6 cells/mL. The solution (100 μL) was transferred to 5 mL culture tubes, and 5 μL of Annexin V-FITC (BD, Pharmingen) and 5 μL of PI were added to each tube. The cells were gently vortexed, and incubated for 30 min at 25 °C in the dark. PBS (200 μL) was added to each tube. The analysis was performed on a flow cytometry (Becton-Dickinson FACSCalibur, New York, NY, USA).

Assay [8] deals with three cancer cell lines (MCF-7, SMMC-7721, HeLa). The assay is described as follows: MTT cytotoxic assay, summary statements over the three cancer cell lines. The class given is cell-based, human. The settings on record: Homo sapiens; at least one of MCF-7, SMMC-7721, HeLa; strong cytotoxicity; read-out: IC50 against at least one cancer cell line. On the procedure: as §1, §2

Molecules are shown by their SMILES. Some results are limits rather than exact numbers.

On to `CCN(CC)Cc1nc2c(Br)cc3c(c2nc1CN(CC)CC)CCC1[C@](C)(C(=O)OC)CCC[C@]31C` (some centres unmarked) [Compound 4b, Methyl 12-bromo-2′,3′-bis((diethylamino)methyl)-13,14-pyrazinyldeisopropyl-dehydroabietate], for which the IC50 (commonly the concentration that gives 50% inhibition) in assay [1] is 1.78 ± 0.36 µM; in assay [3], 1.08 ± 0.12 µM; in assay [4], 0.72 ± 0.09 µM; in assay [6], 11.1 ± 0.57 µM. The “nuclear morphological changes / apoptosis (Hoechst 33258)” value in the assay with SMMC-7721 cells [2] is “induce apoptosis of SMMC-7721 cells in a dose-dependent manner”. For the same compound, in the assay with SMMC-7721 cells [5] (SMMC-7721, 1.0-10.0 μM, 48 h), the cell cycle arrest result was “arrest SMMC-7721 cells in the G0/G1 stage”. In the assay on SMMC-7721 cells [5] (SMMC-7721, 48 h, end of the range 0-10.0 μM (control 10.42 ± 0.68%)), this compound gave a G2/M phase cells of 18.13 ± 0.13%. This compound also gave a S phase cells in the assay on SMMC-7721 cells [5] (SMMC-7721, 48 h, end of the range 0-10.0 μM (control 32.24 ± 0.21%)) of 8.54 ± 0.57%. Besides, the G0/G1 phase cells in the assay with SMMC-7721 cells [5] (SMMC-7721, 48 h, end of the range 0-10.0 μM (control 57.34 ± 0.48%)) was determined as 73.33 ± 0.69%. Further, the “percentage of early apoptotic cells (AV+/PI−)” value in the assay with SMMC-7721 cells [7] (SMMC-7721, 5.0 μM, 24 h (control 2.84 ± 0.26%)) amounted to 17.44 ± 0.68%. The “percentage of late apoptotic cells (AV+/PI+)” value with SMMC-7721 cells [7] (SMMC-7721, 5.0 μM, 24 h (control 7.45 ± 0.42%)) came out at 52.36 ± 1.23%. In the assay with SMMC-7721 cells [7] (SMMC-7721, 5.0 μM, 24 h (control 10.29%)), the “apoptotic cells (early + late)” value was 69.80%. Further, in the assay with SMMC-7721 cells [7] (SMMC-7721, 24 h), the “induction of apoptosis (Annexin V-FITC/PI)” value is recorded as “induce the apoptosis of SMMC-7721 cells in a dose-dependent manner”.
Consider `COC(=O)[C@]1(C)CCC[C@]2(C)c3cc(Br)c4nc(CN5CCCCC5)c(CN5CCCCC5)nc4c3CCC12` (some centres unmarked) [Compound 4f, Methyl 12-bromo-2′,3′-bis(piperidin-1-ylmethyl)-13,14-pyrazinyldeisopropyl-dehydroabietate], for which the IC50 was 8.95 ± 0.63 µM in assay [1]; 5.98 ± 0.37 µM in assay [3]; 7.71 ± 0.82 µM in assay [4]; less than 10 µM in assay [8]; 42.2 ± 2.78 µM in assay [6].
Regarding `COC(=O)[C@]1(C)CCC[C@]2(C)c3cc(Br)c4nc(Cn5ccnn5)c(Cn5ccnn5)nc4c3CCC12` (some centres unmarked) [Compound 4m, Methyl 12-bromo-2′,3′-bis((1H-1,2,3-triazol-1-yl)methyl)-13,14-pyrazinyl-deisopropyl-dehydroabietate], the IC50 was 3.73 ± 0.62 µM in assay [1]; 2.18 ± 0.37 µM in assay [3]; 4.66 ± 0.42 µM in assay [4]; less than 10 µM in assay [8]; 18.4 ± 1.73 µM in assay [6].
